Consider one compound from paper PMC10877733, “Discovery and Characterization of VU0542270, the First Selective Inhibitor of Vascular Kir6.1/SUR2B KATP Channels” (Molecular Pharmacology, 2024).

The nature of series [1]: Intrinsic clearance in liver microsomes, human. Type of series: in vitro ADME. As to the method: The in vitro intrinsic clearance (CLint) of VU0542270 was investigated in commercially obtained hepatic microsomes from rat, mouse, and human donors using the substrate depletion (i.e., loss-of-parent versus time, or t1/2 method) approach with analyte detection via LC-MS/MS. For each species, mean per cent parent remaining values at each time point were calculated from replicates raw data (analyte:IS peak area ratios) and used to determine in vitro t1/2 and CLint.
Experiments were carried out using a robot-assisted liquid handling system (TECAN model Evo 200). VU0542270 was incubated (1 µM final concentration) in buffer (100 mM potassium phosphate, pH 7.4, with 3 mM MgCl2) containing hepatic microsomes (0.5 mg/mL final concentration) from multiple species, discretely, at 37°C under constant orbital shaking. After 5 minutes (preincubation), reactions were initiated by the addition of NADPH (1 mM final concentration). At selected time intervals (0, 3, 7, 15, 25, and 45 minutes) post addition of NADPH, aliquots (50 µL) were taken and placed into a 96-shallow-well plate containing ice-cold acetonitrile (150 µL) with carbamazepine (IS, 50 nM). The plates were then centrifuged (3000 rcf at 4°C) for 10 minutes. […]
Predicted hepatic clearance (CLhep) was calculated using the following equation: [drawing 4] […]
For orientation: Liver microsomes are vesicles of endoplasmic reticulum, rich in cytochrome P450 enzymes.

The target of another series is T1, Kir6.1/SUR2B (Homo sapiens, UniProt O60706).
T1 construct: expressed in transfected cells; also transiently transfected HEK293T
In words: Whole-cell patch clamp electrophysiology, T-Rex-HEK293-Kir6.1/SUR2B cells. Type of series: cell-based. On the procedure:
T-Rex-HEK293-Kir6.1/SUR2B cells were plated into tissue culture-treated 35-mm polystyrene dishes at a density of 250,000 cells and cultured in a 5% CO2 incubator at 37°C. Whole-cell patch-clamp recordings were performed 48 hours after plating. Cells were dissociated on the experiment day and plated on poly-L-lysine–coated coverslips and allowed to recover for at least 1 hour in a 37°C/5% CO2 incubator before beginning experiments. Patch electrodes (2 to 3 MΩ) were filled with an intracellular solution containing 130 mM KCl, 2 mM MgCl2, 1 mM EGTA, 20 mM HEPES-free acid, and 2 mM Na2ATP (Roche Diagnostics, Risch-Rotkreuz, Switzerland), pH 7.3, titrated with KOH, and osmolarity 275 mOsmol/kg of water (adjusted with sucrose). The standard bath solution contained 135 mM NaCl, 5 mM KCl, 2 mM CaCl2, 1 mM MgCl2, 5 mM glucose, and 10 mM HEPES-free acid, pH 7.4, titrated with NaOH. Serial dilutions of compounds were first made in DMSO and then in bath solution so that the final DMSO concentration was 0.1% v/v across all test doses. Macroscopic currents were recorded under voltage-clamp conditions using an Axopatch 200B Amplifier (Molecular Devices, Sunnyvale, CA). Data were collected at 5 kHz and filtered at 1 kHz. […] IC50 values were determined by fitting the Hill equation to CRCs using variable-slope nonlinear regression analyses. […]
In general terms: In patch-clamp work, channel activity is measured electrically.

Series [2] can be described thus: Brain homogenate binding by equilibrium dialysis, mouse. Type of series: in vitro ADME. The settings on record: read-out: Fu, brain (mouse). On the procedure:
Determination of VU0542270 fu in […] from mouse and rat was conducted using the same methodology and procedure as described for plasma protein binding assay with the following modifications: 1) a final compound concentration of 1 μM was used, and 2) naïve rat brains were homogenized in DPBS (1:3 composition of brain:DPBS, w/w) using a Mini-Bead Beater machine to obtain brain homogenate.
The diluted fraction unbound (fu2) in brain was calculated as (analyte to IS MS peak area ratio from Trans-buffer side)/(analyte to IS MS peak area ratio from Cis-brain homogenate side). Undiluted fraction unbound for the brain was calculated using the following equation: [drawing 1]
Mean values for each species were calculated from three replicates.

The next series has as its target T2, Kir6.2/SUR1 (Homo sapiens, UniProt Q09428).
T2 construct: expressed in transfected cells; also transiently transfected HEK293T
Put plainly: Thallium flux assay of Kir6.2/SUR1 in HEK293 cells. The class given is cell-based. On the procedure: The pcDNA3.1-SUR2B plasmid was generously provided by Dr. Colin Nichols (Washington University). The pcDNA5/TO-Kir6.1 plasmid was synthesized by GenScript. […] For selectivity assays, HEK293T cells were cotransfected with Kir6.x and SURX with Lipofectamine LTX and incubated for 48 hours before thallium flux assays.
Stable T-Rex-HEK293-Kir6.1/SUR2B cells or transiently transfected HEK293T cells were plated in polyamine-coated, clear-bottomed, black-walled 384-well plates and were cultured (37°C/5% CO2) overnight in Dulbecco’s modified Eagle’s medium (Gibco, Carlsbad, CA, 11995-065) containing 10% FBS (2 mM Penicillin-Streptomycin). The following day, cells were washed with assay buffer (i.e., Hanks’ balanced salt solution/20 mM HEPES) and loaded for 1 hour with thallium sensor dye Brilliant Thallium (Ion Bioscience, San Marcos, TX) at room temperature. Dye-loaded cells were washed with assay buffer and transferred to a Panoptic Kinetic Imaging Plate Reader (Wavefront Bioscience, Franklin, TN). Control and test compound treatments were for 4 minutes prior to adding 0.5 mM chloride-free thallium stimulus buffer (Ion Bioscience) to initiate thallium flux.

Where “and” joins values, the source holds several entries; their conditions need not be identical. Equal entries are not always repeated. Entries after “also recorded” stand apart in the source; their conditions may differ.

T2 sequence (Q09428 whole entry, species assumed): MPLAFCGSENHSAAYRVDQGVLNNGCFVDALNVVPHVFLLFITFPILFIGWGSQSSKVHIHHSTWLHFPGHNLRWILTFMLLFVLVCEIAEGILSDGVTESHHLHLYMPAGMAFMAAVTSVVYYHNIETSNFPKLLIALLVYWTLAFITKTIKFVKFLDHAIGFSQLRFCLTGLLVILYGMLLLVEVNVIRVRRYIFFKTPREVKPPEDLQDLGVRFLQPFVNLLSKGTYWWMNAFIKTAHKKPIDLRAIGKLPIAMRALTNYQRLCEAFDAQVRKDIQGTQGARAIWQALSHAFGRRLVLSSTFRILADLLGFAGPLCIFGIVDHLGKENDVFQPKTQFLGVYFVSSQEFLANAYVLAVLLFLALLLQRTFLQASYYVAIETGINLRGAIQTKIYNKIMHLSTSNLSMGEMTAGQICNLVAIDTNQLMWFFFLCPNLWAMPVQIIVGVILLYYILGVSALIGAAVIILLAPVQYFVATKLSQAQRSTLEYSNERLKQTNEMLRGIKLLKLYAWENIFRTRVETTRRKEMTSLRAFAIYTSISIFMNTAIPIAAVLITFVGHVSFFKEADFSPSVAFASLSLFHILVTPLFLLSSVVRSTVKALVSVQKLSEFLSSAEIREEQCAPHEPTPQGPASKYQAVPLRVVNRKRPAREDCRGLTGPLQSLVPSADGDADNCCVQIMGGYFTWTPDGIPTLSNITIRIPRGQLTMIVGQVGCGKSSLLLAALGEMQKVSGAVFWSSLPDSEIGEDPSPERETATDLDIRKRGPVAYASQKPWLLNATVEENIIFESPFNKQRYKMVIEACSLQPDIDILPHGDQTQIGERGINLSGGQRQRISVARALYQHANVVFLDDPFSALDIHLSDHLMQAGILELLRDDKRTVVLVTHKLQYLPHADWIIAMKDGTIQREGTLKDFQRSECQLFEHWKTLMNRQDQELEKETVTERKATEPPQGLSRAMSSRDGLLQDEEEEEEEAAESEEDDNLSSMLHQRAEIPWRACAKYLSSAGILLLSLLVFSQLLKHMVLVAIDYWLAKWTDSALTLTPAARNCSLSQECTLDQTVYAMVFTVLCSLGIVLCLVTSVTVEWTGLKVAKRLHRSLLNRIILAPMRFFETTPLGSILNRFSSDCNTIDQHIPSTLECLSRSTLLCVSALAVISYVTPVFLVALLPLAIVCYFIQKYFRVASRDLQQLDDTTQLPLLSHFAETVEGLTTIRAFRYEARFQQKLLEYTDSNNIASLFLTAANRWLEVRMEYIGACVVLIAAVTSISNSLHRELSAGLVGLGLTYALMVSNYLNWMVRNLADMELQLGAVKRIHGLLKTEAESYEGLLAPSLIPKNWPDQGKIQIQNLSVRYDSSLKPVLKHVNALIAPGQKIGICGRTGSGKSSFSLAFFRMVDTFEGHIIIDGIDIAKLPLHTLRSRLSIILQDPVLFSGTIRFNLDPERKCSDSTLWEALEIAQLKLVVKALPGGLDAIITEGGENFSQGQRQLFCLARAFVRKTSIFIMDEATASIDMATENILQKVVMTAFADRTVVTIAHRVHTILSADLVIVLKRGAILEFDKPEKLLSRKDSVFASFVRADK
T2 sequence (Q14654 whole entry partner, species assumed): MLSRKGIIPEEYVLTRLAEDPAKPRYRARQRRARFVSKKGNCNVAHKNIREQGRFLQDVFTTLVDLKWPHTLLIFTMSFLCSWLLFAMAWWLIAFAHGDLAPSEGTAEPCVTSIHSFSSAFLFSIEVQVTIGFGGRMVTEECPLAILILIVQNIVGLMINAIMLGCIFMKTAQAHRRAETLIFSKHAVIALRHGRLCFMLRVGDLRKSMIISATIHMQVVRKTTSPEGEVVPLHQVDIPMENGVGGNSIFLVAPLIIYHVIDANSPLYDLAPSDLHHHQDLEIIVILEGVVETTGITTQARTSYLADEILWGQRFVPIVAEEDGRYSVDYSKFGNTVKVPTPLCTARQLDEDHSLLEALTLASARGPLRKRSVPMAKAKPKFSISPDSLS
T1 sequence (O60706 1-1549 isoform O60706-2, species assumed): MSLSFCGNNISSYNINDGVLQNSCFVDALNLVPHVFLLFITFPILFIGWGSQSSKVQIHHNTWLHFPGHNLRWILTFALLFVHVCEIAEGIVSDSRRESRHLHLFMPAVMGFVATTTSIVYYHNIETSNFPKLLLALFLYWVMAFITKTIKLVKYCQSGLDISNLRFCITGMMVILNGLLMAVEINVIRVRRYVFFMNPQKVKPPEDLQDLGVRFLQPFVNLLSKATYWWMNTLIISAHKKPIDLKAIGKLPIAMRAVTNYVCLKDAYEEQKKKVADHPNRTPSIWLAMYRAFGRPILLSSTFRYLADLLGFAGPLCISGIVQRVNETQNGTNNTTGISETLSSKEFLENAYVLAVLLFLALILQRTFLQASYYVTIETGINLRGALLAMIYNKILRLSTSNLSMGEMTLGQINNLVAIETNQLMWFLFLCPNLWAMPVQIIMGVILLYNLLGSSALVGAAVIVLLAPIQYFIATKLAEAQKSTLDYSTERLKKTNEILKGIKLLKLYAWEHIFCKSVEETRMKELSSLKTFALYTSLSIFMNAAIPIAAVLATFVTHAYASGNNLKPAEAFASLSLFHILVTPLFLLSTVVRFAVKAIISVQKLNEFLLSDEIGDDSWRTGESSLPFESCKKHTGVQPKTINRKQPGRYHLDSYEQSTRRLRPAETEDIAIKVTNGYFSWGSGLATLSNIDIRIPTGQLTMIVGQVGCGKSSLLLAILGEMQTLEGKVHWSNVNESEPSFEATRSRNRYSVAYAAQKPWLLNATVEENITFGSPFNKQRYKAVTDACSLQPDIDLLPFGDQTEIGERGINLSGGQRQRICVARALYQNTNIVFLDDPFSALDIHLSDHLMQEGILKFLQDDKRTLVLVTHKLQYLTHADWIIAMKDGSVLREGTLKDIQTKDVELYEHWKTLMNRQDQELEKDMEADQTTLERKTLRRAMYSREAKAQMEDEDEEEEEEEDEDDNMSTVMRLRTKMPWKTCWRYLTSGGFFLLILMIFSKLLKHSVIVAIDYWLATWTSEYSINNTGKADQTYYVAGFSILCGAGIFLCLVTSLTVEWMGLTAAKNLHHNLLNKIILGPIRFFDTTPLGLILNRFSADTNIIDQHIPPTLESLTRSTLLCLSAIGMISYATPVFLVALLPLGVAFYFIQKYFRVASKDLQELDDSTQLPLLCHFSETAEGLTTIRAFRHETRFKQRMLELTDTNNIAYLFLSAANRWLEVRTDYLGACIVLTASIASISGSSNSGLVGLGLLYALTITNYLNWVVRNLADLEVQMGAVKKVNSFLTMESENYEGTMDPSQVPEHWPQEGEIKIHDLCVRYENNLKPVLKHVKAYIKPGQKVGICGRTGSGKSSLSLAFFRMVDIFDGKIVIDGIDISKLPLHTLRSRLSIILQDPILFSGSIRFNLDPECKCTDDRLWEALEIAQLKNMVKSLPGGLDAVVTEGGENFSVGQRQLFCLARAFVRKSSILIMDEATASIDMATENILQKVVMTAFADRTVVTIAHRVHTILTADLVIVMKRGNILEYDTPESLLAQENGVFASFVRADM
T1 sequence (Q15842 whole entry partner, species assumed): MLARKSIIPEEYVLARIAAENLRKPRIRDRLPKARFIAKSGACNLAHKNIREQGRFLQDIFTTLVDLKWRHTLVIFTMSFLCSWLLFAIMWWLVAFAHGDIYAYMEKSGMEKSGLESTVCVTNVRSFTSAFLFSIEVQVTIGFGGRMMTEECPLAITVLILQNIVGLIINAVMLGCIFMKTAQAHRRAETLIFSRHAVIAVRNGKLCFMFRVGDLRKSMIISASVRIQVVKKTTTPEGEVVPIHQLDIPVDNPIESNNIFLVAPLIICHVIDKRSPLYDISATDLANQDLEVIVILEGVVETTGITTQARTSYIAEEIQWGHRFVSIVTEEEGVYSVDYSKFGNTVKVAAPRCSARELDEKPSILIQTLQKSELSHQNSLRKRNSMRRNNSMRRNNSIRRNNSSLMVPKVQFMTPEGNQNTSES

For `Cc1nc(-c2cccs2)sc1CNC(=O)Nc1cccs1` [VU0542270], in series [1] (corrected to plasma unbound fraction), the “Predicted CLhep,u (human)” value is 1.3 mL/min per kg. For the same compound, the “Predicted CLhep (human)” value in series [1] (from microsomal CLint) was 19 mL/min per kg. In addition, the IC50 on Kir6.1/SUR2B (1 µM pinacidil-activated, normalized to maximal inhibition by 10 µM VU0542270, read-out: Kir6.1/SUR2B IC50, whole-cell current) is ~279 nM and 278 nM; against Kir6.2/SUR1 (thallium flux, Table 1 selectivity profile) it was above 30 µM. In addition, the “inhibition of KATP current” value on Kir6.1/SUR2B (10 µM compound in continued presence of 1 µM pinacidil) is listed as “complete inhibition”. Besides, in series [2], the fraction unbound at 6 h, 1 µM was 0.02. The “activity toward Kir6.2/SUR1” value at Kir6.2/SUR1 (doses up to 30 µM) is “no apparent activity”. The “Kir6.2/SUR1 IC50, ATP depletion” value at Kir6.2/SUR1 (thallium flux, transfected HEK-293 cells, channels activated by metabolic inhibition (ATP depletion) (Fig. 4B)) was “failed to inhibit; also recorded: no fit”. Besides, the “Kir6.2/SUR1 IC50, VU0071063 activation” value on Kir6.2/SUR1 (thallium flux, transfected HEK-293 cells, channels activated with VU0071063 (Fig. 4A)) was “failed to inhibit; also recorded: no fit”.
